Patent US10398144B2, “N-,C-disubstituted azoles and compositions and methods for controlling nematode pests” (Monsanto Technology LLC, priority 2013, dated 2019)
Marks after values point to notes of the source that are not given here.

Key:
[1] = system: Meloidogyne incognita nematodes; experiment: Miniaturized greenhouse nematicidal efficacy assay (cucumber root gall rating); details: average of triplicate gall ratings
Description: A miniaturized greenhouse assay was conducted to study the effects of several N-,C-disubstituted azole analogs on Meloidogyne incognita nematodes.
Cucumber seeds were sprouted for 3 days in moist paper towels. Acceptable sprouts were 3 to 4 cm long, with several lateral roots just emerging.
Each test solution was evaluated in triplicate. Dry sand (10 mL) was added to each vial. Seedlings were planted by tilting the vial and laying the seedling in the correct orientation so that the cotyledons were just above the sand, and then tilting back to cover the radicles with sand.
A sample of the test solution (3.3 mL) was then added to each vial, and the vials were placed in racks under fluorescent light banks. The vials were inoculated two days after planting by adding 500 vermiform M. incognita eggs to each vial in deionized or spring water (50 μL). The vials were then kept under the fluorescent lamps at ambient room temperature and watered as needed with deionized water (1 mL), usually twice during duration of test.
Harvest of the cucumber plants was performed 10 to 12 days after inoculation by washing sand off the roots. A root gall rating was assigned using the following Gall rating scale (Gall: % root mass galled): 0=0-5%; 1=6-20%; 2=21-50%; and 3=51-100%.

[2] = 1 ppm, cucumber seedlings in sand, 500 M. incognita eggs, harvest 10 to 12 days after inoculation, scale 0=0-5%, 1=6-20%, 2=21-50%, 3=51-100% root mass galled
[3] = 8 ppm, cucumber seedlings in sand, 500 M. incognita eggs, harvest 10 to 12 days after inoculation, scale 0=0-5%, 1=6-20%, 2=21-50%, 3=51-100% root mass galled
[4] = 40 ppm, cucumber seedlings in sand, 500 M. incognita eggs, harvest 10 to 12 days after inoculation, scale 0=0-5%, 1=6-20%, 2=21-50%, 3=51-100% root mass galled

Row | Molecule | melting point | 40/8/1 ppm gall ratings [1, 2] | 40/8/1 ppm gall ratings [1, 3] | 40/8/1 ppm gall ratings [1, 4] | 40/8/1 ppm gall ratings ([1]; comparative compositions at 1 ppm, letters a-d mark separate tests, scale 0-3)
1 | c1ccc(-n2cc(-c3ccco3)nn2)cc1 [Formula Ia-i, 4-(furan-2-yl)-1-phenyl-1H-1,2,3-triazole] | 118 to 120 °C |  |  |  | 
2 | c1ccc(-n2ncc(-c3cccs3)n2)cc1 [Formula Id-i, 2-phenyl-4-(thiophen-2-yl)-2H-1,2,3-triazole] | 78 °C |  |  |  | 
3 | Fc1ccc(-c2cn(-c3cccs3)nn2)c(F)c1 [IIa-i, 4-(2,4-difluorophenyl)-1-(thiophen-2-yl)-1H-1,2,3-triazole] |  | 1.67 | 0.00 | 0.00 | 
4 | c1ccc(-c2cn(-c3cccs3)nn2)cc1 [IIa-ii, 4-phenyl-1-(thiophen-2-yl)-1H-1,2,3-triazole] |  | 1.67 | 0.00 | 0.00 | 
5 | c1ccc(-c2cn(-c3ccco3)nn2)cc1 [IIa-iii, 1-(furan-2-yl)-4-phenyl-1H-1,2,3-triazole] |  | 2.00 | 1.33 | 0.00 | 
6 | Fc1ccc(-c2cn(-c3cccs3)nn2)cc1 [IIa-iv, 4-(4-fluorophenyl)-1-(thiophen-2-yl)-1H-1,2,3-triazole] |  | 2.67 | 1.33 | 0.33 | 
7 | Clc1ccc(-c2cn(-c3ccco3)nn2)cc1 [IIa-v, 4-(4-chlorophenyl)-1-(furan-2-yl)-1H-1,2,3-triazole] |  | 2.33 | 0.67 | 0.00 | 
8 | Clc1ccc(-c2cn(-c3cccs3)cn2)cc1 [IIc-i, 4-(4-chlorophenyl)-1-(thiophen-2-yl)-1H-imidazole] |  | 1.67 | 1.33 | 0.00 | 
9 | c1ccc(-c2cn(-c3cccs3)cn2)cc1 [IIc-iii, 4-phenyl-1-(thiophen-2-yl)-1H-imidazole] |  | 2.33 | 1.33 | 0.00 | 
10 | Clc1ccc(-c2cn(-c3ccco3)cn2)cc1 [IIc-iv, 4-(4-chlorophenyl)-1-(furan-2-yl)-1H-imidazole] |  | 2.33 | 2.00 | 0.33 | 
11 | c1ccc(-n2cc(-c3ccco3)nn2)cc1 [Ia-i, 4-(furan-2-yl)-1-phenyl-1H-1,2,3-triazole] |  | 2.67 | 1.33 | 0.00 | 
12 | Fc1ccc(-n2cc(-c3cccs3)nn2)c(F)c1 [Ia-ii, 1-(2,4-difluorophenyl)-4-(thiophen-2-yl)-1H-1,2,3-triazole] |  | 3.00 | 2.33 | 0.00 | 
13 | Clc1ccc(-n2cc(-c3ccco3)nn2)cc1 [Ia-iiii, 1-(4-chlorophenyl)-4-(furan-2-yl)-1H-1,2,3-triazole] |  | 2.67 | 1.00 | 0.00 | 
14 | Fc1ccc(-n2cc(-c3ccco3)nn2)cc1 [Ia-iv, 1-(4-fluorophenyl)-4-(furan-2-yl)-1H-1,2,3-triazole] |  | 2.33 | 1.67 | 0.33 | 
15 | Fc1ccc(-n2cc(-c3ccco3)nn2)c(F)c1 [Ia-v, 1-(2,4-difluorophenyl)-4-(furan-2-yl)-1H-1,2,3-triazole] |  | 2.33 | 0.67 | 0.00 | 
16 | c1ccc(-n2cc(-c3cccs3)cn2)cc1 [Ib-i, 1-phenyl-4-(thiophen-2-yl)-1H-pyrazole] |  | 3.00 | 0.33 | 0.00 | 
17 | Clc1ccc(-n2cc(-c3cccs3)cn2)cc1 [Ib-ii, 1-(4-chlorophenyl)-4-(thiophen-2-yl)-1H-pyrazole] |  | 2.33 | 0.67 | 0.00 | 
18 | c1ccc(-n2cc(-c3ccco3)cn2)cc1 [Ib-iii, 4-(furan-2-yl)-1-phenyl-1H-pyrazole] |  | 2.67 | 1.67 | 0.00 | 
19 | Clc1ccc(-n2cnc(-c3ccco3)c2)cc1 [Ic-i, 1-(4-chlorophenyl)-4-(furan-2-yl)-1H-imidazole] |  | 3.00 | 2.00 | 0.33 | 
20 | c1ccc(-n2ncc(-c3cccs3)n2)cc1 [Id-i, 2-phenyl-4-(thiophen-2-yl)-2H-1,2,3-triazole] |  | 1.67 | 0.33 | 0.00 | 
21 | c1ccc(-n2ncc(-c3ccco3)n2)cc1 [Id-ii, 4-(furan-2-yl)-2-phenyl-2H-1,2,3-triazole] |  | 2.33 | 1.00 | 0.00 | 
22 | Abamectin [reference compound] |  |  |  |  | 1.67^d
